{"source": "patent US4132778A", "about": "“Antibiotic A-32887” (Eli Lilly and Company, priority 1977, dated 1979)", "key": {"Staphylococcus aureus": {"system": "Staphylococcus aureus", "assay": "Conventional disc-diffusion method, Table VIII", "type": "cell-based", "settings": "each as Na-K salts", "procedure": "(§1) The antimicrobial activity of two typical A-32887 acyl ester derivatives is compared with that of A-32887 (each as Na-K salts) in Table VIII. Activity against illustrative bacteria is measured by the conventional disc-diffusion method. In addition, the results of a conventional paper-disc agar-diffusion assay system (Plate Assay) against Bacillus subtilis ATCC 6633 are reported. […] The samples were assayed at 1 mg/ml."}, "Bacillus subtilis [1]": {"system": "Bacillus subtilis", "assay": "Conventional disc-diffusion method, Table VIII", "type": "cell-based", "settings": "each as Na-K salts", "procedure": "as §1"}, "Micrococcus lutea": {"system": "Micrococcus lutea", "assay": "Conventional disc-diffusion method, Table VIII", "type": "cell-based", "settings": "each as Na-K salts", "procedure": "as §1"}, "[2]": {"system": "Infectious Canine Hepatitis virus", "assay": "In vitro plaque suppression test"}, "[3]": {"system": "type B influenza virus (Maryland, dog kidney)", "assay": "In vitro plaque suppression test", "type": "cell-based"}, "[4]": {"assay": "Ion binding / ion transport (ionophore)", "description": "A-32887 can be used when the selective removal of particular cations is desired. Examples of such uses include the removal and recovery of silver ions from solutions in photography, the removal of toxic cations from industrial waste streams before such streams are discharged to the environment, and desalinization of sea water. A-32887 can be used as one component of an ion-specific electrode (O. Kedem, et al., U.S. Pat. No. 3,753,887, Aug. 21, 1973, Alkali metal specific measuring electrode). […] A-32887 can be used, therefore, as a component in a membrane used for the selective transport of cations against a concentration gradient. One potential application of this property is in recovery of heavy and precious metals on a commercial basis [see E. L. Cussler, D. F. Evans, and Sister M. A. Matesick, Science 172, 377 (1971)]."}, "Bacillus subtilis [5]": {"system": "Bacillus subtilis", "assay": "Conventional disc-diffusion method, minimal media, Table VIII", "type": "cell-based", "settings": "each as Na-K salts"}, "[6]": {"system": "Transmissible Gastroenteritis virus", "assay": "In vitro plaque suppression test"}}}
{"compound": "CO[C@H]1CC[C@H](OC2[C@@H](C)[C@@](C)(O)O[C@H]([C@H]3CC[C@H]([C@@H]4CC[C@H]([C@@]5(C)O[C@]6(O[C@H](C[C@@H]7O[C@](O)([C@@H](O)C(=O)O)[C@@H](C)[C@H](OC)[C@@]7(C)OC)C[C@@H](OC)[C@H]6C)[C@H](C)[C@H]5OC)O4)O3)[C@H]2C)O[C@@H]1C.[K+].[Na+]", "note": "(stereo partly drawn) [A-32887]", "values": [{"measurement": "activity by disc-diffusion, Staphylococcus aureus", "setting": "Staphylococcus aureus", "result": 16}, {"measurement": "activity by disc-diffusion, Bacillus subtilis", "setting": "Bacillus subtilis [1]", "result": 18}, {"measurement": "activity by disc-diffusion, Micrococcus lutea", "setting": "Micrococcus lutea", "result": 16}, {"measurement": "antiviral activity", "setting": "[2]", "result": "active"}, {"measurement": "antiviral activity", "setting": "[3]", "result": "active"}, {"measurement": "cation permeability of natural and artificial membranes", "setting": "[4]", "result": "alters the cation permeability of both natural and artificial membranes"}, {"measurement": "ion-binding and ion-transport properties", "setting": "[4]", "result": "exhibits ion-binding and ion-transport properties"}, {"measurement": "activity by disc-diffusion, Bacillus subtilis", "setting": "Bacillus subtilis [5]", "result": 30}, {"measurement": "antiviral activity", "setting": "[6]", "result": "active"}]}
